This note sets out measurements from ChEMBL document CHEMBL4184209, “Identification and initial optimization of inhibitors of Clostridium difficile (C. difficile) toxin B (TcdB)” (Bioorg Med Chem Lett, 2018).

Each structure is given as a SMILES string. The source made the active and inactive calls. Bounds are passed on as bounds.

Broadly, the IC50 is the concentration at which inhibition is half-maximal.

The target of one series is Toxin B (Clostridioides difficile, UniProt P18177). Kind of series: Inhibition of C-terminal 6-His tagged recombinant Clostridium difficile toxin B catalytic fragment (Met1 to Leu543 residues) assessed as reduction in glucosyltransferase domain UDP-glucose hydrolysis activity using UDP-glucose and ADP Alexa633 tracer incubated fore 3 hrs by fluorescence polarization assay. Background: Fluorescence polarisation rises when a labelled molecule tumbles more slowly, as on binding a larger partner.
Sequence of Toxin B (P18177 whole entry, the tested form may be a part): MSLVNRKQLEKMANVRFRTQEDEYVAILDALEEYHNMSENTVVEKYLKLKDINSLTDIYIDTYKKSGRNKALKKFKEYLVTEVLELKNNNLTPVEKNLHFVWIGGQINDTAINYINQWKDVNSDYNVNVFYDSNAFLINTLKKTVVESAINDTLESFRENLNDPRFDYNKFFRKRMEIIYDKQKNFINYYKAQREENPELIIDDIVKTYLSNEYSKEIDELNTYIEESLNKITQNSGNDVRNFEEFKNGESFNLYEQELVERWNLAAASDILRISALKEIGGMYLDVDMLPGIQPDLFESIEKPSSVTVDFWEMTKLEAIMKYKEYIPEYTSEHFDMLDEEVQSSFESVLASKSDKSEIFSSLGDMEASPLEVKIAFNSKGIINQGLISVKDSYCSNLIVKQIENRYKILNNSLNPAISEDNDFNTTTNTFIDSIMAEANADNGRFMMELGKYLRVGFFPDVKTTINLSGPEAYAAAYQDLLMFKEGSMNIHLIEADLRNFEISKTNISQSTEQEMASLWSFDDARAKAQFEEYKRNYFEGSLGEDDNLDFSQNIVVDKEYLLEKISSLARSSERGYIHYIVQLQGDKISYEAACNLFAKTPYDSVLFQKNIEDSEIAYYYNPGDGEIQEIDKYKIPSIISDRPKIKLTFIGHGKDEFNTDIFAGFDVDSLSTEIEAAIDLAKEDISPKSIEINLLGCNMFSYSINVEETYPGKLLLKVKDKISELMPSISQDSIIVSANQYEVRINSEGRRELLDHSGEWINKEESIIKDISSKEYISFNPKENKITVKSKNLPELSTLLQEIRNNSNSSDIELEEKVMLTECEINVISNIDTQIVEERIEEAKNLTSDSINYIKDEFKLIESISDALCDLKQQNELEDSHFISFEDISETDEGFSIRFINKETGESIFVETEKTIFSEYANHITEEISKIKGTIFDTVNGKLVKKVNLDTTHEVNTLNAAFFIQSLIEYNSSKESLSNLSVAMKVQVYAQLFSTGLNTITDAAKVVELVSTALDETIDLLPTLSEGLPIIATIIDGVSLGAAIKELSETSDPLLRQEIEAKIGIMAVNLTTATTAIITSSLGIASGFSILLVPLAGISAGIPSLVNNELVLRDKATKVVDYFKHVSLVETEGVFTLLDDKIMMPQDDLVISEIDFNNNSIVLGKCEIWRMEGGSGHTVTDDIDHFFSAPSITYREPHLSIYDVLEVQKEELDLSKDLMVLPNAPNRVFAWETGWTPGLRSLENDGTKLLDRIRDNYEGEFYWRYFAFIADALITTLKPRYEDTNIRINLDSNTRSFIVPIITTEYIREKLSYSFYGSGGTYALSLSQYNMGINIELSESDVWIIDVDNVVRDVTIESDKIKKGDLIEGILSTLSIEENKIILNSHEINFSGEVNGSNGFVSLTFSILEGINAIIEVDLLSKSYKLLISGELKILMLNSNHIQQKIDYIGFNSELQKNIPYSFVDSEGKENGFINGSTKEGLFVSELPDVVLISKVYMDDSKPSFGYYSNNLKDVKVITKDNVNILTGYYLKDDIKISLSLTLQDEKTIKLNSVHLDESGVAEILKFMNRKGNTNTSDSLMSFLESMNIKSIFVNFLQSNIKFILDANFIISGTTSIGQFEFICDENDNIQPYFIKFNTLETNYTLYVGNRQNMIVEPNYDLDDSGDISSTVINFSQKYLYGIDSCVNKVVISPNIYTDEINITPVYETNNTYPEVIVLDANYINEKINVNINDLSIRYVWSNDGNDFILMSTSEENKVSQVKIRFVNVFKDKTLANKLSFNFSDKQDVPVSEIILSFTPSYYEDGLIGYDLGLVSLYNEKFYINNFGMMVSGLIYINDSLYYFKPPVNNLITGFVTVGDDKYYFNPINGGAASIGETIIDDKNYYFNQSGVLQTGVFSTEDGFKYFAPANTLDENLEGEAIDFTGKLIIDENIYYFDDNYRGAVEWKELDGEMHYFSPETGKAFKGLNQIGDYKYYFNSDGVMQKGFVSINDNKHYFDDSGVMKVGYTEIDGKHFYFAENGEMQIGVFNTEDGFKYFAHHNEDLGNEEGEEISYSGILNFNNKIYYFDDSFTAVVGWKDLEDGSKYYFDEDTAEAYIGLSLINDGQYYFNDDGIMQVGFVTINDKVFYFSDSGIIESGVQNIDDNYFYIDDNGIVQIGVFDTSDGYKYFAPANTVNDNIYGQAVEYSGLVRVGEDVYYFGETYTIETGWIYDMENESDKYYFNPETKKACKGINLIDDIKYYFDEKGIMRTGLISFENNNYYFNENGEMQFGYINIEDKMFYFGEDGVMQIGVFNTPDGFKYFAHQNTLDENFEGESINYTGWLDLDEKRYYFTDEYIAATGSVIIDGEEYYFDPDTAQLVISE
With `O=C(Nc1ccncc1)c1ccc(CN2C(=O)c3ccc(Cl)cc3NC(=O)[C@H]2Cc2cccnc2)cc1`, the IC50 was more than 80 µM.
For the molecule `O=C(O)c1ccc(CN2C(=O)c3ccc(Cl)cc3NC(=O)[C@@H]2Cc2ccc(O)cc2)cc1`, the IC50 was found to be 16 µM.
With `N#Cc1cccc(C[C@@H]2C(=O)Nc3cc(Cl)ccc3C(=O)N2Cc2ccc(C(=O)O)cc2)c1`, the IC50 was 6.2 µM.
`Cc1ccccc1C[C@@H]1C(=O)Nc2cc(Cl)ccc2C(=O)N1Cc1ccc(C(=O)O)cc1`: the IC50 turned out to be 3.9 µM.
With `O=C(O)c1ccc(CN2C(=O)c3ccc(Cl)cc3NC(=O)[C@H]2c2ccccc2)cc1`, the IC50 is more than 80 µM.
As to `O=C(O)c1ccc(CN2C(=O)c3cccc(Cl)c3NC(=O)[C@H]2Cc2cccnc2)cc1`, the IC50 is 69 µM.
Take `O=C(O)c1ccc(CN2C(=O)c3ccccc3NC(=O)[C@H]2Cc2cccnc2)cc1`: the IC50 turned out to be 46 µM.
For the molecule `O=C(Nc1cccnc1)c1ccc(CN2C(=O)c3ccc(Cl)cc3NC(=O)[C@H]2Cc2cccnc2)cc1`, the IC50 was more than 80 µM.
As for `O=C(O)c1ccc(CN2C(=O)c3ccc(Cl)cc3NC(=O)[C@H]2Cc2ccccc2F)cc1`, the IC50 worked out at 30 µM.
`O=C(O)c1ccc(CN2C(=O)c3ccc(Cl)cc3NC(=O)C2Cc2cnccn2)cc1` (racemic): the IC50 came out at 3.1 µM.
Take `Cc1ccc(C[C@@H]2C(=O)Nc3cc(Cl)ccc3C(=O)N2Cc2ccc(C(=O)O)cc2)cc1`: the IC50 is 32 µM.
With `O=C(O)c1ccc(CN2C(=O)c3ccc(Cl)cc3NC(=O)[C@H]2Cc2cccc(Cl)c2)cc1`, the IC50 worked out at 1.6 µM.
Same read-out and setting: under `O=C(O)c1ccc(CN2C(=O)c3ccc(Cl)cc3NC(=O)[C@H]2Cc2ccccn2)cc1` stands 0.24 µM; under `COc1ccc2c(c1)NC(=O)[C@@H](Cc1cccnc1)N(Cc1ccc(C(=O)O)cc1)C2=O`, 2.5 µM; under `O=C(O)c1ccc(CN2C(=O)c3cc(Cl)ccc3NC(=O)[C@H]2Cc2cccnc2)cc1`, more than 80 µM.

The test system of another series is Bifidobacterium longum. Kind of series: Effect on growth of Bifidobacterium longum at 0.5 to 100 uM incubated for 24 hrs under anaerobic conditions by spectrophotometry. The series is classed as organism-based.
For the molecule `O=C(Nc1ccncc1)c1ccc(CN2C(=O)c3ccc(Cl)cc3NC(=O)[C@H]2Cc2cccnc2)cc1`, the Activity entry is listed as “Non-Toxic”.
With `O=C(O)c1ccc(CN2C(=O)c3ccc(Cl)cc3NC(=O)[C@@H]2Cc2ccc(O)cc2)cc1`, the Activity entry is reported as “Non-Toxic”.
Regarding `N#Cc1cccc(C[C@@H]2C(=O)Nc3cc(Cl)ccc3C(=O)N2Cc2ccc(C(=O)O)cc2)c1`, the Activity entry is given as “Non-Toxic”.
For `Cc1ccccc1C[C@@H]1C(=O)Nc2cc(Cl)ccc2C(=O)N1Cc1ccc(C(=O)O)cc1`, the Activity entry is recorded as “Non-Toxic”.
On to `O=C(O)c1ccc(CN2C(=O)c3ccc(Cl)cc3NC(=O)[C@H]2c2ccccc2)cc1`, for which the Activity entry is “Non-Toxic”.
In the case of `O=C(O)c1ccc(CN2C(=O)c3cccc(Cl)c3NC(=O)[C@H]2Cc2cccnc2)cc1`, the Activity result was “Non-Toxic”.
In the case of `O=C(O)c1ccc(CN2C(=O)c3ccccc3NC(=O)[C@H]2Cc2cccnc2)cc1`, the Activity entry was “Non-Toxic”.
Consider `O=C(Nc1cccnc1)c1ccc(CN2C(=O)c3ccc(Cl)cc3NC(=O)[C@H]2Cc2cccnc2)cc1`, for which the Activity entry is reported as “Non-Toxic”.
Regarding `O=C(O)c1ccc(CN2C(=O)c3ccc(Cl)cc3NC(=O)[C@H]2Cc2ccccc2F)cc1`, the Activity result is reported as “Non-Toxic”.
With `O=C(O)c1ccc(CN2C(=O)c3ccc(Cl)cc3NC(=O)C2Cc2cnccn2)cc1` (racemic), the Activity result is reported as “Non-Toxic”.
On the same count and under the same terms, in the case of `Cc1ccc(C[C@@H]2C(=O)Nc3cc(Cl)ccc3C(=O)N2Cc2ccc(C(=O)O)cc2)cc1` it was “Non-Toxic”.
Regarding `O=C(O)c1ccc(CN2C(=O)c3ccc(Cl)cc3NC(=O)[C@H]2Cc2cccc(Cl)c2)cc1`, the Activity result is given as “Non-Toxic”.
For `O=C(O)c1ccc(CN2C(=O)c3ccc(Cl)cc3NC(=O)[C@H]2Cc2ccccn2)cc1`, the Activity result is given as “Non-Toxic”.
`COc1ccc2c(c1)NC(=O)[C@@H](Cc1cccnc1)N(Cc1ccc(C(=O)O)cc1)C2=O`: the Activity entry is given as “Non-Toxic”.
Same read-out and setting: under `O=C(O)c1ccc(CN2C(=O)c3cc(Cl)ccc3NC(=O)[C@H]2Cc2cccnc2)cc1` stands “Non-Toxic”.

The test system of the next series is Limosilactobacillus reuteri. Description: Effect on growth of Lactobacillus reuteri at 0.5 to 100 uM incubated for 24 hrs under anaerobic conditions by spectrophotometry. The series is classed as organism-based.
Take `O=C(Nc1ccncc1)c1ccc(CN2C(=O)c3ccc(Cl)cc3NC(=O)[C@H]2Cc2cccnc2)cc1`: the Activity entry is reported as “Non-Toxic”.
Regarding `O=C(O)c1ccc(CN2C(=O)c3ccc(Cl)cc3NC(=O)[C@@H]2Cc2ccc(O)cc2)cc1`, the Activity result was “Non-Toxic”.
The same measure, in the same setting: in the case of `N#Cc1cccc(C[C@@H]2C(=O)Nc3cc(Cl)ccc3C(=O)N2Cc2ccc(C(=O)O)cc2)c1` it was “Non-Toxic”; in that of `Cc1ccccc1C[C@@H]1C(=O)Nc2cc(Cl)ccc2C(=O)N1Cc1ccc(C(=O)O)cc1`, “Non-Toxic”.
As for `O=C(O)c1ccc(CN2C(=O)c3ccc(Cl)cc3NC(=O)[C@H]2c2ccccc2)cc1`, the Activity entry is “Non-Toxic”.
Regarding `O=C(O)c1ccc(CN2C(=O)c3cccc(Cl)c3NC(=O)[C@H]2Cc2cccnc2)cc1`, the Activity result is on record as “Non-Toxic”.
For `O=C(O)c1ccc(CN2C(=O)c3ccccc3NC(=O)[C@H]2Cc2cccnc2)cc1`, the Activity result is on record as “Non-Toxic”.
The same measure, in the same setting: under `O=C(Nc1cccnc1)c1ccc(CN2C(=O)c3ccc(Cl)cc3NC(=O)[C@H]2Cc2cccnc2)cc1` stands “Non-Toxic”; under `O=C(O)c1ccc(CN2C(=O)c3ccc(Cl)cc3NC(=O)[C@H]2Cc2ccccc2F)cc1`, “Non-Toxic”.
For `O=C(O)c1ccc(CN2C(=O)c3ccc(Cl)cc3NC(=O)C2Cc2cnccn2)cc1` (racemic), the Activity result is listed as “Non-Toxic”.
`Cc1ccc(C[C@@H]2C(=O)Nc3cc(Cl)ccc3C(=O)N2Cc2ccc(C(=O)O)cc2)cc1`: the Activity result is given as “Non-Toxic”.
Regarding `O=C(O)c1ccc(CN2C(=O)c3ccc(Cl)cc3NC(=O)[C@H]2Cc2cccc(Cl)c2)cc1`, the Activity entry is “Non-Toxic”.
Regarding `O=C(O)c1ccc(CN2C(=O)c3ccc(Cl)cc3NC(=O)[C@H]2Cc2ccccn2)cc1`, the Activity result is “Non-Toxic”.
Take `COc1ccc2c(c1)NC(=O)[C@@H](Cc1cccnc1)N(Cc1ccc(C(=O)O)cc1)C2=O`: the Activity entry is “Non-Toxic”.
The same measure, in the same setting: under `O=C(O)c1ccc(CN2C(=O)c3cc(Cl)ccc3NC(=O)[C@H]2Cc2cccnc2)cc1` stands “Non-Toxic”.

The next series relates to Bacteroides fragilis. Description: Effect on growth of Bacteroides fragilis at 0.5 to 100 uM incubated for 48 hrs under anaerobic conditions by spectrophotometry. The series is classed as organism-based.
As for `O=C(Nc1ccncc1)c1ccc(CN2C(=O)c3ccc(Cl)cc3NC(=O)[C@H]2Cc2cccnc2)cc1`, the Activity entry was “Non-Toxic”.
Consider `O=C(O)c1ccc(CN2C(=O)c3ccc(Cl)cc3NC(=O)[C@@H]2Cc2ccc(O)cc2)cc1`, for which the Activity result is reported as “Non-Toxic”.
`N#Cc1cccc(C[C@@H]2C(=O)Nc3cc(Cl)ccc3C(=O)N2Cc2ccc(C(=O)O)cc2)c1`: the Activity result is given as “Non-Toxic”.
Regarding `Cc1ccccc1C[C@@H]1C(=O)Nc2cc(Cl)ccc2C(=O)N1Cc1ccc(C(=O)O)cc1`, the Activity entry is reported as “Non-Toxic”.
Same read-out and setting: in the case of `O=C(O)c1ccc(CN2C(=O)c3ccc(Cl)cc3NC(=O)[C@H]2c2ccccc2)cc1` it was “Non-Toxic”; in that of `O=C(O)c1ccc(CN2C(=O)c3cccc(Cl)c3NC(=O)[C@H]2Cc2cccnc2)cc1`, “Non-Toxic”; in that of `O=C(O)c1ccc(CN2C(=O)c3ccccc3NC(=O)[C@H]2Cc2cccnc2)cc1`, “Non-Toxic”.
`O=C(Nc1cccnc1)c1ccc(CN2C(=O)c3ccc(Cl)cc3NC(=O)[C@H]2Cc2cccnc2)cc1`: the Activity entry was “Non-Toxic”.
Still for that read-out and setting: under `O=C(O)c1ccc(CN2C(=O)c3ccc(Cl)cc3NC(=O)[C@H]2Cc2ccccc2F)cc1` stands “Non-Toxic”.
`O=C(O)c1ccc(CN2C(=O)c3ccc(Cl)cc3NC(=O)C2Cc2cnccn2)cc1` (racemic): the Activity result was “Non-Toxic”.
Take `Cc1ccc(C[C@@H]2C(=O)Nc3cc(Cl)ccc3C(=O)N2Cc2ccc(C(=O)O)cc2)cc1`: the Activity entry is on record as “Non-Toxic”.
As to `O=C(O)c1ccc(CN2C(=O)c3ccc(Cl)cc3NC(=O)[C@H]2Cc2cccc(Cl)c2)cc1`, the Activity entry is recorded as “Non-Toxic”.
Still for that read-out and setting: under `O=C(O)c1ccc(CN2C(=O)c3ccc(Cl)cc3NC(=O)[C@H]2Cc2ccccn2)cc1` stands “Non-Toxic”; under `COc1ccc2c(c1)NC(=O)[C@@H](Cc1cccnc1)N(Cc1ccc(C(=O)O)cc1)C2=O`, “Non-Toxic”.
On to `O=C(O)c1ccc(CN2C(=O)c3cc(Cl)ccc3NC(=O)[C@H]2Cc2cccnc2)cc1`, for which the Activity entry was “Non-Toxic”.

Another series deals with Clostridioides difficile. Description: Effect on growth of Clostridium difficile at 0.5 to 100 uM incubated for 24 hrs under anaerobic conditions by spectrophotometry. The series is classed as functional, organism-based.
In the case of `O=C(Nc1ccncc1)c1ccc(CN2C(=O)c3ccc(Cl)cc3NC(=O)[C@H]2Cc2cccnc2)cc1`, the outcome was inactive.
Turning to `O=C(O)c1ccc(CN2C(=O)c3ccc(Cl)cc3NC(=O)[C@@H]2Cc2ccc(O)cc2)cc1`, the result was inactive.
For the molecule `N#Cc1cccc(C[C@@H]2C(=O)Nc3cc(Cl)ccc3C(=O)N2Cc2ccc(C(=O)O)cc2)c1`, the result was inactive.
As to `Cc1ccccc1C[C@@H]1C(=O)Nc2cc(Cl)ccc2C(=O)N1Cc1ccc(C(=O)O)cc1`, the outcome was inactive.
Still for that read-out and setting: under `O=C(O)c1ccc(CN2C(=O)c3ccc(Cl)cc3NC(=O)[C@H]2c2ccccc2)cc1` stands “inactive”.
For the molecule `O=C(O)c1ccc(CN2C(=O)c3cccc(Cl)c3NC(=O)[C@H]2Cc2cccnc2)cc1`, the outcome was inactive.
On the same count and under the same terms, in the case of `O=C(O)c1ccc(CN2C(=O)c3ccccc3NC(=O)[C@H]2Cc2cccnc2)cc1` it was “inactive”.
With `O=C(Nc1cccnc1)c1ccc(CN2C(=O)c3ccc(Cl)cc3NC(=O)[C@H]2Cc2cccnc2)cc1`, the result was inactive.
Regarding `O=C(O)c1ccc(CN2C(=O)c3ccc(Cl)cc3NC(=O)[C@H]2Cc2ccccc2F)cc1`, the result was inactive.
Consider `O=C(O)c1ccc(CN2C(=O)c3ccc(Cl)cc3NC(=O)C2Cc2cnccn2)cc1` (racemic), for which the outcome was inactive.
Regarding `Cc1ccc(C[C@@H]2C(=O)Nc3cc(Cl)ccc3C(=O)N2Cc2ccc(C(=O)O)cc2)cc1`, the outcome was inactive.
For `O=C(O)c1ccc(CN2C(=O)c3ccc(Cl)cc3NC(=O)[C@H]2Cc2cccc(Cl)c2)cc1`, the outcome was inactive.
For the molecule `O=C(O)c1ccc(CN2C(=O)c3ccc(Cl)cc3NC(=O)[C@H]2Cc2ccccn2)cc1`, the outcome was inactive.
With `COc1ccc2c(c1)NC(=O)[C@@H](Cc1cccnc1)N(Cc1ccc(C(=O)O)cc1)C2=O`, the result was inactive.
Take `O=C(O)c1ccc(CN2C(=O)c3cc(Cl)ccc3NC(=O)[C@H]2Cc2cccnc2)cc1`: the result was inactive.
